Assay results: patent US20240165170A1, “USE OF LACTIC ACID BACTERIUM SET FOR PREVENTING OR TREATING NSAID-INDUCED GASTRIC ULCER” (GRAPE KING BIO LTD., priority 2022, published 2024)
Where “and” joins values, the source holds several entries; their conditions need not be identical. Equal entries are not always repeated.

How the values were obtained:
ICR male mice = experiment: aspirin-induced gastric ulcer test in ICR mice (ulcer area, ulcer index, cure rate, mucosal ulcer pathology); format: in vivo; design: key to Mucosal ulcer (pathological indicator, score per mouse): Grade 0 represents no ulcers occurred in normal tissue; Grade 1 represents less than ⅓ of superficial ulcer lesions in gastric mucosa; Grade 2 represents about ½ of superficial to middle ulcer lesions in gastric mucosa; Grade 3 represents about ⅔ of superficial to deep ulcer lesions in gastric mucosa; grade 4 represents gastric mucosal epithelial full-thickness ulcer and the lesion penetrates 3/3 of the muscle layer
Method: A total of 24 ICR male mice purchased from BioLASCO (Lesco Biotechnology) were used as the experimental animals, each about 25 grams. The mice were kept in a general mouse cage, the room temperature was maintained at 22±3° C., the humidity was 55±15%, and the light and darkness were regularly 12 hours (12 hr light-dark cycle). Feed and sterile reverse osmosis water was allowed to be eaten by mice freely. Newly imported animals need to be observed for 3-5 days to ensure that there is no abnormality before testing. Before the experiment, the ICR mice were randomly grouped and caged, and each ICR mouse was marked with an ear number for identification and recording.
(§1) 24 mice were divided into a blank control group, a negative control group, a positive control group and a lactic acid bacteria test group, and there were 6 mice in each group. The mice were administered once a day for 39 consecutive days. The blank control group and the negative control group were given drinking water, the positive control group was given 20 mg/kg Omeprazole, and the lactic acid bacteria test group was given GKD7 and GKA4 freeze-dried powder, each 10.2 mg/kg/day. On day 29, 500 mg/kg aspirin was administered to the negative control group, positive control group and lactic acid bacteria test group to induce gastric ulcer (the blank control group was not administered) for 10 days (D29-D39), and finally the mice were sacrificed on D40 and performed various analyses.
(§2) The body weight of the mice was recorded every week, and after 39 consecutive days of administration, the mice were sacrificed with a high dose of Sutai 50 on the 40th day. The appearance, stomach tissues and organs of the mice were observed and made records.
Ulcer area statistics: ImageJ software was utilized to circle the ulcer focus of gastric tissue to calculate the gastric ulcer focus area of each ICR mouse. Each ulcer focus can get different scores according to the size of the ulcer (see the table below):
After each ulcer focus score is obtained, the application calculates the ulcer index of the mouse according to the following formula 1, and the higher the ulcer index, the more severe the ulcer.
If the experimental group mice (positive control group, lactic acid bacteria test group) are compared with the negative control group mice and the area of gastric ulcer (ulcer index) is reduced, it means that the experimental group produces a healing effect. Dividing the ulcer index of the experimental group by the ulcer index of the negative control group obtains the ulcer improvement rate, which is then subtracted from 1 to get the healing rate (cure rate) compared with the negative control group. The calculation method is shown as the following formula 2: […]

[1] = body weight change of mice during the test; format: in vivo; details: between groups in the same period, p>0.05
Method: as §1, §2

COc1ccc2[nH]c([S+]([O-])Cc3ncc(C)c(OC)c3C)nc2c1 (centres unmarked) [Omeprazole]
ulcer area (ICR male mice; ICR mice, once daily for 39 days, 500 mg/kg aspirin D29-D39, sacrificed D40, 6 mice per group): 7.12±2.15 mm^2 | ulcer index (ICR male mice; ICR mice, once daily for 39 days, 500 mg/kg aspirin D29-D39, formula 1, higher index = more severe ulcer): 2.57±0.67 | Cure rate (%) (ICR male mice; formula 2: 1 minus ulcer index of group / ulcer index of negative control group): 53.25% | Mucosal ulcer (pathological indicator, score per mouse) (ICR male mice; stomach histopathology, individual mice, grade 0-4, higher score = more serious damage, listed as Positive control group): 0 and 1 | body weight of mice during the test [1]: no significant difference
